Results taken from the NIST ThermoML archive (doi:10.1021/acs.jced.7b00769).

Assay: xn = mol fraction of the nth substance listed
Details: Gas, isochoric method

F/C=C\C(F)(F)F [(Z)-1,3,3,3-tetrafluoro-1-propene] + CC(C)C
Details	specific volume [m3/kg]
303.15 K, 145.9 kPa, x2 = 0.118	0.152
303.15 K, 155.7 kPa, x2 = 0.222	0.1514
303.15 K, 206.5 kPa, x2 = 0.427	0.127
303.15 K, 213.5 kPa, x2 = 0.51	0.1286
308.15 K, 148.7 kPa, x2 = 0.118	0.152
308.15 K, 158.6 kPa, x2 = 0.222	0.1514
308.15 K, 210.5 kPa, x2 = 0.427	0.127
308.15 K, 217.4 kPa, x2 = 0.51	0.1286
313.15 K, 151.4 kPa, x2 = 0.118	0.1521
313.15 K, 161.5 kPa, x2 = 0.222	0.1515
313.15 K, 214.4 kPa, x2 = 0.427	0.1271
313.15 K, 221.3 kPa, x2 = 0.51	0.1286
313.15 K, 398.1 kPa, x2 = 0.658	0.0757
318.15 K, 154 kPa, x2 = 0.118	0.1521
318.15 K, 164.3 kPa, x2 = 0.222	0.1515
318.15 K, 218.3 kPa, x2 = 0.427	0.1271
318.15 K, 225.2 kPa, x2 = 0.51	0.1287
318.15 K, 362.3 kPa, x2 = 0.725	0.0906
318.15 K, 406.6 kPa, x2 = 0.658	0.0758
323.15 K, 156.8 kPa, x2 = 0.118	0.1521
323.15 K, 167.2 kPa, x2 = 0.222	0.1515
323.15 K, 222.2 kPa, x2 = 0.427	0.1271
323.15 K, 229.2 kPa, x2 = 0.51	0.1287
323.15 K, 369.1 kPa, x2 = 0.725	0.0906
323.15 K, 414.5 kPa, x2 = 0.658	0.0758
328.15 K, 159.4 kPa, x2 = 0.118	0.1522
328.15 K, 170 kPa, x2 = 0.222	0.1516
328.15 K, 226 kPa, x2 = 0.427	0.1271
328.15 K, 233.1 kPa, x2 = 0.51	0.1287
328.15 K, 375.8 kPa, x2 = 0.725	0.0906
328.15 K, 423.1 kPa, x2 = 0.658	0.0758
333.15 K, 162 kPa, x2 = 0.118	0.1522
333.15 K, 172.7 kPa, x2 = 0.222	0.1516
333.15 K, 229.8 kPa, x2 = 0.427	0.1272
333.15 K, 237 kPa, x2 = 0.51	0.1287
333.15 K, 382.5 kPa, x2 = 0.725	0.0907
333.15 K, 430.7 kPa, x2 = 0.658	0.0758
338.15 K, 164.6 kPa, x2 = 0.118	0.1522
338.15 K, 175.4 kPa, x2 = 0.222	0.1516
338.15 K, 233.6 kPa, x2 = 0.427	0.1272
338.15 K, 240.9 kPa, x2 = 0.51	0.1288
338.15 K, 389.1 kPa, x2 = 0.725	0.0907
338.15 K, 438.4 kPa, x2 = 0.658	0.0758
343.15 K, 167.2 kPa, x2 = 0.118	0.1523
343.15 K, 178.2 kPa, x2 = 0.222	0.1517
343.15 K, 237.3 kPa, x2 = 0.427	0.1272
343.15 K, 244.7 kPa, x2 = 0.51	0.1288
343.15 K, 395.8 kPa, x2 = 0.725	0.0907
343.15 K, 446 kPa, x2 = 0.658	0.0758
348.15 K, 169.8 kPa, x2 = 0.118	0.1523
348.15 K, 180.8 kPa, x2 = 0.222	0.1517
348.15 K, 241.1 kPa, x2 = 0.427	0.1272
348.15 K, 248.6 kPa, x2 = 0.51	0.1288
348.15 K, 402.5 kPa, x2 = 0.725	0.0907
348.15 K, 453.6 kPa, x2 = 0.658	0.0759
353.15 K, 172.5 kPa, x2 = 0.118	0.1523
353.15 K, 183.7 kPa, x2 = 0.222	0.1517
353.15 K, 244.7 kPa, x2 = 0.427	0.1273
353.15 K, 252.4 kPa, x2 = 0.51	0.1288
353.15 K, 409.1 kPa, x2 = 0.725	0.0907
353.15 K, 461.2 kPa, x2 = 0.658	0.0759
358.15 K, 175.1 kPa, x2 = 0.118	0.1524
358.15 K, 186.5 kPa, x2 = 0.222	0.1518
358.15 K, 248.6 kPa, x2 = 0.427	0.1273
358.15 K, 256.3 kPa, x2 = 0.51	0.1289
358.15 K, 415.6 kPa, x2 = 0.725	0.0908
358.15 K, 468.5 kPa, x2 = 0.658	0.0759
363.15 K, 177.7 kPa, x2 = 0.118	0.1524
363.15 K, 189.4 kPa, x2 = 0.222	0.1518
363.15 K, 252.3 kPa, x2 = 0.427	0.1273
363.15 K, 260.1 kPa, x2 = 0.51	0.1289
363.15 K, 422.1 kPa, x2 = 0.725	0.0908
363.15 K, 476 kPa, x2 = 0.658	0.0759
368.15 K, 180.3 kPa, x2 = 0.118	0.1524
368.15 K, 192.1 kPa, x2 = 0.222	0.1518
368.15 K, 256 kPa, x2 = 0.427	0.1274
368.15 K, 263.9 kPa, x2 = 0.51	0.1289
368.15 K, 428.6 kPa, x2 = 0.725	0.0908
368.15 K, 483.4 kPa, x2 = 0.658	0.0759
373.15 K, 182.9 kPa, x2 = 0.118	0.1525
373.15 K, 194.9 kPa, x2 = 0.222	0.1519
373.15 K, 259.8 kPa, x2 = 0.427	0.1274
373.15 K, 267.8 kPa, x2 = 0.51	0.129
373.15 K, 435.2 kPa, x2 = 0.725	0.0908
373.15 K, 490.9 kPa, x2 = 0.658	0.0759
378.15 K, 185.5 kPa, x2 = 0.118	0.1525
378.15 K, 197.7 kPa, x2 = 0.222	0.1519
378.15 K, 263.6 kPa, x2 = 0.427	0.1274
378.15 K, 271.7 kPa, x2 = 0.51	0.129
378.15 K, 441.7 kPa, x2 = 0.725	0.0908
378.15 K, 498.2 kPa, x2 = 0.658	0.076
383.15 K, 188.1 kPa, x2 = 0.118	0.1525
383.15 K, 200.5 kPa, x2 = 0.222	0.1519
383.15 K, 267.4 kPa, x2 = 0.427	0.1274
383.15 K, 275.5 kPa, x2 = 0.51	0.129
383.15 K, 448.3 kPa, x2 = 0.725	0.0909
383.15 K, 505.8 kPa, x2 = 0.658	0.076
